Among the data in patent US8921405B2, “Compounds” (Orexo AB, priority 2009, dated 2014) are inhibition values, retold here.

For the assay, the target named is T1, recombinant human mPGES-1 (Homo sapiens, UniProt O14684).
T1 construct: made in house; host or cells: Rosetta E. coli (membrane/microsome fraction)
T1 sequence (O14684 1-152): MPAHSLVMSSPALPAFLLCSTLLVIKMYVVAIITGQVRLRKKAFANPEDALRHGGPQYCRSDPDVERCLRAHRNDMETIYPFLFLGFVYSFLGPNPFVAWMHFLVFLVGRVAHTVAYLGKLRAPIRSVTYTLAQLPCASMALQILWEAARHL
Kind of assay: mPGES-1 HTRF assay (inhibition of PGE2 formation from PGH2). The following applies: compound concentration of 10 μM, HTRF assay; read-out: % inhibition. It counts as biochemical. How it is done: The basis of the assay used is to measure the inhibition of microsomal prostaglandin E2 synthase-1 (mPGES-1) dependent prostaglandin (PG) E2 formation from PGH2 by different compounds. Thus, the formation of PGE2 is used as signal and a lowering of this signal can be interpreted as inhibition of mPGES-1. […] Microsomes from Rosetta E. coli bacteria expressing recombinant human mPGES-1 can be derived as described below: Inoculate 5 ml LB with Amp and Chloro with bacteria from freeze culture. Incubate over night at 37° C. with 200 rpm. Thereafter, inoculate 500-800 ml LB containing Amp and Chloro with the 5 ml on culture and grow to OD640 of 0.6-0.8. Chill the culture to +4° C. before induction. Induce the culture with IPTG at a final concentration of 400 μM. Express the protein at room temp 18-23° C. with 200 rpm shaking over night. The following steps can be performed on the following day: • 1. Spin down the cells in 250 ml centrifuge flasks for 15 min at 7000 rpm • 2. Dissolve the pellet from 250 ml culture in 12.5 ml homogenization buffer • 3. Disintegrate the cells by sonication, 4×10 seconds at 35% amplitude • 4. Add 2.5 ml MgCl2 (100 mM) and DNase 12.5 μl (0.8 mg/ml) and incubate on ice for 30 min • 5. Spin down the bacteria debris and save the supernatant, 7000 rpm for 15 min • 6. Isolate the protein containing membranes in the supernatant by ultracentrifugation 45000×g for 1 hour. • 7. Discard the supernatant and dissolve the pellet in 20 mM KPi buffer and aliquot the enzyme and store aliquots at −80° C. Before each experiment is performed an aliquot of the enzyme is thawed and it can then be dissolved in 0.1 M KPi pH 7.4 buffer containing 2.5 mM GSH. 50 μl of this enzyme solution is subsequently dispensed in a 384-well plate at room temperature. 0.5 μl of the inhibitor dissolved in DMSO is thereafter added to each well and incubated for 25 minutes at room temperature. Subsequently, 2 μl of PGH2 dissolved in an appropriate solvent is added to each well and after one minute at room temperature, the acidified stop solution containing FeCl2 is added. 4 μl of the total volume is transferred to a separate plate and diluted 750-fold in two separate steps before quantification of PGE2. In order to quantitate the amount of PGE2 that has been formed, a homogenous time resolved fluorescent (HTRF) detection of PGE2 can be performed by the use of a commercially available kit from CisBio essentially according to the manufacturer's protocol. […] The sealing film is thereafter removed from the NC wells. • 5 μl Eu3+-cryptate labeled anti-PGE2 can now be added to rows 1 to 24 by using a Multidrop. • The plate can now be covered with sealing film. • The plate can now be centrifuge at 1200 rpm for 1 minute and place at 4° C. overnight. After the over night incubation the fluorescence is measured by the use of an appropriate microplate reader. […] The extent of the specific HTRF is measured as a ratio of the emission intensity at 665 nm vs. that at 620 nm. A standard curve using synthetic PGE2 is used to quantify the amount of PGE2 in unknown samples. The degree of inhibition can be calculated as percent inhibition by dividing the amount of PGE2 formed in unknown samples by the amount of PGE2 formed in control samples.
`Cn1c(Nc2cc(CNC(=O)C3(C)CCCCC3)ccc2Cl)nc2cc(Cl)c(NC(=O)c3ccc(Br)cc3)cc21` [Example 25, 4-Bromo-N-(5-chloro-2-{2-chloro-5-[(1-methylcyclohexylamido)methyl]phenylamino}-1-methyl-6-benzimidazolyl)benzamide]: the inhibition at 10 µM is 99%.

Take `CN(C1CCCC1)S(=O)(=O)c1ccc2c(c1)nc(Nc1cc(CNC(=O)C3(C)CCCCC3)ccc1Cl)n2C` [Example 26, N-{4-Chloro-3-[5-(N-cyclopentyl-N-methylsulfamoyl)-1-methyl-2-benzimidazolylamino]benzyl}-1-methylcyclohexylamide]: the inhibition at 10 µM worked out at 100%.

For `Cn1c(Nc2cc(CNC(=O)c3c(F)cccc3Cl)ccc2Cl)nc2cc(C(=O)NCC3CCCCC3)ccc21` [Example 27, 2-{2-Chloro-5-[(2-chloro-6-fluorobenzamido)methyl]phenylamino}-N-cyclohexylmethyl-1-methylbenzimidazole-5-carboxamide], the inhibition at 10 µM was 100%.

On to `Cn1c(Nc2cc(CNC(=O)C3CCCO3)ccc2Cl)nc2cc(C(=O)NCC3CCCCC3)ccc21` (centres unmarked) [Example 28, 2-{2-Chloro-5-[(2-tetrahydrofurylamido)methyl]phenylamino}-N-cyclohexylmethyl-1-methylbenzimidazole-5-carboxamide], for which the inhibition at 10 µM is 100%.

On to `Cn1c(Nc2cc(CNC(=O)C3(C(F)(F)F)CC3)ccc2Cl)nc2cc(C(=O)NCC3CCCCC3)ccc21` [Example 30, 2-{2-chloro-5-[(1-trifluoromethylcyclopropylamido)methyl]phenyl-amino}-N-cyclohexylmethyl-1-methylbenzimidazole-5-carboxamide], for which the inhibition at 10 µM came out at 98%.

With `Cn1c(Nc2cc(CNC(=O)C3(C)CCCC3)ccc2Cl)nc2cc(C(=O)NCC3CCCCC3)ccc21` [Example 31, 2-{2-Chloro-5-[(1-methylcyclopentylamido)methyl]phenylamino}-N-cyclohexylmethyl-1-methylbenzimidazole-5-carboxamide], the inhibition at 10 µM is 99%.

Take `CC(=O)NCc1ccc(Cl)c(Nc2nc3cc(C(=O)NCC4CCCCC4)ccc3n2C)c1` [Example 32, 2-[5-(Acetamidomethyl)-2-chlorophenylamino]-N-cyclohexylmethyl-1-methylbenzimidazole-5-carboxamide]: the inhibition at 10 µM is 98%.

As to `Cn1c(Nc2cc(CNC(=O)OC(C)(C)C)ccc2Cl)nc2cc(C(=O)NCC3CCCCC3)ccc21` [Example 33], the inhibition at 10 µM was 93%.

On to `Cn1c(Nc2cc(CNC(=O)OC(C)(C)C)ccc2Cl)nc2cc(C(=O)Nc3ccc(Br)cc3)ccc21` [Example 34, tert-Butyl 3-[5-(4-bromophenylcarbamoyl)-1-methyl-2-benzimidazolylamino]-4-chlorobenzylcarbamate], for which the inhibition at 10 µM was found to be 100%.

Take `Cn1c(Nc2cc(CNC(=O)C3CCC(F)(F)CC3)ccc2Cl)nc2cc(C(=O)Nc3ccc(Br)cc3)ccc21` [Example 35, N-(4-Bromophenyl)-2-{2-chloro-5-[(4,4-difluorocyclohexylamido)-methyl]phenylamino]-1-methylbenzimidazole-5-carboxamide]: the inhibition at 10 µM was determined as 100%.

For the compound `Cn1c(Nc2cc(CNC(=O)c3c(F)cccc3Cl)ccc2Cl)nc2cc(C(=O)Nc3ccc(Br)cc3)ccc21` [Example 36, N-(4-Bromophenyl)-2-{2-chloro-5-[(2-chloro-6-fluorobenzamido)methyl]phenylamino}-1-methylbenzimidazole-5-carboxamide], the inhibition at 10 µM came out at 100%.

As for `Cn1c(Nc2cc(CNC(=O)C3(C(F)(F)F)CC3)ccc2Cl)nc2cc(C(=O)Nc3ccc(Br)cc3)ccc21` [Example 37, N-(4-Bromophenyl)-2-{2-chloro-5-[(1-trifluoromethylcyclopropylamido)methyl]phenylamino}-1-methylbenzimidazole-5-carboxamide], the inhibition at 10 µM is 100%.

As to `Cn1c(Nc2cc(CNC(=O)C3(C#N)CC3)ccc2Cl)nc2cc(C(=O)Nc3ccc(Br)cc3)ccc21` [Example 38, N-(4-Bromophenyl)-2-{2-chloro-5-[(1-cyanocyclopropylamido)methyl]-phenylamino}-1-methylbenzimidazole-5-carboxamide], the inhibition at 10 µM worked out at 100%.

For `Cn1c(Nc2cc(CNC(=O)[C@@H]3C[C@H]3c3ccccc3)ccc2Cl)nc2cc(C(=O)Nc3ccc(Br)cc3)ccc21` [Example 39, N-(4-Bromophenyl)-2-{2-chloro-5-[(trans-2-phenylcyclopropylamido)-methyl]phenylamino}-1-methylbenzimidazole-5-carboxamide], the inhibition at 10 µM was 100%.

With `Cn1c(Nc2cc(CNC(=O)C3(C)COC3)ccc2Cl)nc2cc(C(=O)Nc3ccc(Br)cc3)ccc21` [Example 40, N-(4-Bromophenyl)-2-{2-chloro-5-[(3-methyl-3-oxetanylamido)methyl]-phenylamino}-1-methylbenzimidazole-5-carboxamide], the inhibition at 10 µM amounted to 98%.

On to `Cn1c(Nc2cc(CNC(=O)C3(C)CCCC3)ccc2Cl)nc2cc(C(=O)Nc3ccc(Br)cc3)ccc21` [Example 41, N-(4-Bromophenyl)-2-{2-chloro-5-[(1-methylcyclopentylamido)methyl]-phenylamino}-1-methylbenzimidazole-5-carboxamide], for which the inhibition at 10 µM was 100%.

Turning to `Cn1c(Nc2cc(CNC(=O)C3(C#N)CCCC3)ccc2Cl)nc2cc(C(=O)Nc3ccc(Br)cc3)ccc21` [Example 42, N-(4-Bromophenyl)-2-{2-chloro-5-[(1-cyanocyclopentylamido)methyl]-phenylamino}-1-methylbenzimidazole-5-carboxamide], the inhibition at 10 µM turned out to be 100%.

On to `CC(=O)NCc1ccc(Cl)c(Nc2nc3cc(C(=O)Nc4ccc(Br)cc4)ccc3n2C)c1` [Example 43, 2-[5-(Acetamidomethyl)-2-chlorophenylamino]-N-(4-bromophenyl)-1-methylbenzimidazole-5-carboxamide], for which the inhibition at 10 µM was determined as 100%.

For the compound `Cn1c(Nc2cc(CNS(=O)(=O)c3cccs3)ccc2Cl)nc2cc(C(=O)Nc3ccc(Br)cc3)ccc21` [Example 44, N-(4-Bromophenyl)-2-{2-chloro-5-[(2-thienylsulfonamido)methyl]phenylamino}-1-methylbenzimidazole-5-carboxamide], the inhibition at 10 µM worked out at 100%.

As to `Cn1c(Nc2cc(CNS(=O)(=O)C3CC3)ccc2Cl)nc2cc(C(=O)Nc3ccc(Br)cc3)ccc21` [Example 45, N-(4-Bromophenyl)-2-{2-chloro-5-[(cyclopropylsulfonamido)methyl]-phenylamino}-1-methylbenzimidazole-5-carboxamide], the inhibition at 10 µM was 100%.

In the case of `CCC1(C(=O)NCc2ccc(Cl)c(Nc3nc4cc(C(=O)Nc5ccc(Br)cc5)ccc4n3C)c2)CCCC1` [Example 46, N-(4-Bromophenyl)-2-{2-chloro-5-[(1-ethylcyclopentylamido)methyl]-phenylamino}-1-methylbenzimidazole-5-carboxamide], the inhibition at 10 µM is 100%.

As for `CSC1(C(=O)NCc2ccc(Cl)c(Nc3nc4cc(C(=O)Nc5ccc(Br)cc5)ccc4n3C)c2)CCCC1` [Example 47, N-(4-Bromophenyl)-2-{2-chloro-5-[(1-methylthiocyclopentylamido)-methyl]phenylamino}-1-methylbenzimidazole-5-carboxamide], the inhibition at 10 µM was 100%.

In the case of `Cn1c(Nc2cc(CNC(=O)C3(CC4CC4)CCCC3)ccc2Cl)nc2cc(C(=O)Nc3ccc(Br)cc3)ccc21` [Example 48, N-(4-Bromophenyl)-2-{2-chloro-5-[(1-cyclopropylmethylcyclopentyl-amido)methyl]phenylamino}-1-methylbenzimidazole-5-carboxamide], the inhibition at 10 µM was determined as 100%.

The inhibition is how much of the control response was suppressed.
